The subject of series [1] is Leaf. Kind of series: Drug level in Oryza sativa (rice) plant leaf at 18 g/a after 10 days. It is filed as ADME. To be noted: 240 h.
Series [2] has as its system Pyricularia oryzae. The series is described as follows: Antifungal activity against Magnaporthe oryzae in fourth-leaf stage of rice plant assessed as appressorial formation at 36 g/a after 24 hr (reference value: 90.4 +/- 5.6%). The class given is functional.
In series [3] the test system is Pyricularia oryzae. The series is described as follows: Antifungal activity against Magnaporthe oryzae in fourth-leaf stage of rice plant assessed as spore germination at 9 g/a after 24 hr (reference value: 97.2 +/- 2.7%). It is filed as functional.
The test system of series [4] is Pyricularia oryzae. The series is described as follows: Antifungal activity against Magnaporthe oryzae in fourth-leaf stage of rice plant assessed as spore germination at 36 g/a after 24 hr (reference value: 97.2 +/- 2.7%). It is filed as functional.
Series [5] deals with Leaf. Kind of series: Drug level in Oryza sativa (rice) plant leaf at 18 g/a up to 42 days. It is filed as ADME. To be noted: 1008 h.
In series [6] the test system is Pyricularia oryzae. The series is described as follows: Antifungal activity against Magnaporthe oryzae in fourth-leaf stage of rice plant assessed as spore germination at 18 g/a after 24 hr (reference value: 97.2 +/- 2.7%). It is filed as functional.
For another series, the system named is Root. Kind of series: Drug level in Oryza sativa (rice) plant root at 18 g/a up to 42 days. To be noted: 1008 h. The class given is ADME.
The test system of series [7] is Pyricularia oryzae. Kind of series: Antifungal activity against Magnaporthe oryzae in fourth-leaf stage of rice plant assessed as appressorial formation at 18 g/a after 24 hr (reference value: 90.4 +/- 5.6%). It is filed as functional.
Series [8] concerns Pyricularia oryzae. The series is described as follows: Antifungal activity against Magnaporthe oryzae in fourth-leaf stage of rice plant assessed as appressorial formation at 9 g/a after 24 hr (reference value: 90.4 +/- 5.6%). The class given is functional.

As to `CNC(=O)/C(=N\OC)c1ccccc1Oc1ccccc1`, the Drug uptake is on record as 20 ppm in the series with Leaf [1], < 2 ppm in the series with Leaf [5] and < 2 ppm with Root. Further, the Activity in the series on Pyricularia oryzae [2] amounted to 91.9%; with Pyricularia oryzae [3], 97.1%; in the series on Pyricularia oryzae [4], 96.4%; in the series on Pyricularia oryzae [6] it was 96.5%; in the series on Pyricularia oryzae [7] it was 91.2%; in the series with Pyricularia oryzae [8], 92.2%.

Values taken from ChEMBL document CHEMBL3046082, “Control of Rice Blast Disease by Submerged Treatment with SSF-126” (J Pestic Sci, 1997).
